The text below walks through data of EP4667483A1, “HUMAN TRANSFERRIN RECEPTOR-BINDING PEPTIDE” (JCR Pharmaceuticals Co., Ltd., priority 2023, dated 2024).

In general, Kd refers to a measure of binding affinity in units of concentration.

Bridge positions count the residues as written; N and C are the ends. Square brackets hold non-standard residues; d marks the D form. Peptide text beside a SMILES is read from it. * marks the point of attachment. Trp(1-CH2COOH) = N[C@@H](Cc1cn(CC(=O)O)c2ccccc12)C(=O)O; CH2CON(CH2CH2)2NCH2COOH = O=C(O)CN1CCN(C(=O)C*)CC1; NMePhe(4-COOH) = CN[C@@H](Cc1ccc(C(=O)O)cc1)C(=O)O; Nle(6-morpholino) = N[C@@H](CCCCN1CCOCC1)C(=O)O; Phe(3-COOH) = N[C@@H](Cc1cccc(C(=O)O)c1)C(=O)O; Trp(7-aza) = N[C@@H](Cc1c[nH]c2ncccc12)C(=O)O; NH(CH2CH2O)8Me = COCCOCCOCCOCCOCCOCCOCCOCCN*; NMePhe(3-Cl) = CN[C@@H](Cc1cccc(Cl)c1)C(=O)O; 3Pal(6-NH2) = Nc1ccc(C[C@H](N)C(=O)O)cn1; NMeY = CN[C@@H](Cc1ccc(O)cc1)C(=O)O; Nva(3-Et) = CCC(CC)[C@H](N)C(=O)O; 4Pal = N[C@@H](Cc1ccncc1)C(=O)O; PEG4 = NCCOCCOCCOCCOCCC(=O)O; Carboxymethyl = O=C(O)C*

Assay [1] concerns the target T1, human transferrin receptor (hTfR) (Homo sapiens, UniProt P02786). Nature of the assay: SPR measurement under pH 7.4 conditions (Biacore T200, CM3 chip, hTfR captured by His Tag antibody). The assay is classed as binding. The conditions noted are these: pH 7.4, single-cycle kinetics; read-out: hTfR SPR pH7.4 KD.
The target of assay [2] is T1, human transferrin receptor (hTfR). Nature of the assay: SPR measurement under pH 6.0 conditions (Biacore T200, NTA chip, immobilized hTfR). The conditions noted are these: pH 6.0, single-cycle kinetics; read-out: hTfR SPR pH6.0 KD. Format: binding. For orientation: Surface plasmon resonance follows binding to a sensor surface in real time, without labels.

T1 sequence (P02786 whole entry): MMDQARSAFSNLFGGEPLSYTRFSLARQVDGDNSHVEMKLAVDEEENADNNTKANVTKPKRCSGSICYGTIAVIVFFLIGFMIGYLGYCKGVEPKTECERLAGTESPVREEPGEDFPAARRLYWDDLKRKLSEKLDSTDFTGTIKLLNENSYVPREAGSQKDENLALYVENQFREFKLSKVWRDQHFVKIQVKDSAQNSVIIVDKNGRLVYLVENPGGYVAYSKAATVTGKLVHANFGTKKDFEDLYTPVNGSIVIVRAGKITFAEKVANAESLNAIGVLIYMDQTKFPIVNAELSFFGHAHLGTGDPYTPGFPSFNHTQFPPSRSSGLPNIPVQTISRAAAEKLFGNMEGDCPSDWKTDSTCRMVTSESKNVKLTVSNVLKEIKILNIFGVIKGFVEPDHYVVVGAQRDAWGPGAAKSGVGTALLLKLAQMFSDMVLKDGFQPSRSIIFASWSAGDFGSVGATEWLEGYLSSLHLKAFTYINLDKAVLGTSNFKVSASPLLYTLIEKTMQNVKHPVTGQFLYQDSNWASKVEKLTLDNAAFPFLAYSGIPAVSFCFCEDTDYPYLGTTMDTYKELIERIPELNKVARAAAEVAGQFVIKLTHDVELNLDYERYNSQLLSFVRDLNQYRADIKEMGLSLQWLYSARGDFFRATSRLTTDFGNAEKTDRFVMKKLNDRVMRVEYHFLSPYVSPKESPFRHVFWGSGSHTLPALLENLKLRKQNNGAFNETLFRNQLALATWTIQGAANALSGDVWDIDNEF

`CCC(CC)[C@@H]1NC(=O)[C@H](Cc2ccc(OCC(=O)O)cc2)NC(=O)[C@H](Cc2ccc(N)nc2)NC(=O)[C@H](CC(N)=O)NC(=O)[C@H](Cc2cn(CC(=O)O)c3ccccc23)NC(=O)[C@H](C(C)C)NC(=O)[C@H](Cc2cccc(Cl)c2)N(C)C(=O)[C@H](C(C)C)NC(=O)[C@H](C)NC(=O)CSC[C@@H](C(=O)NCCOCCOCCOCCOCCC(N)=O)NC(=O)[C@H](Cc2ccc(C(=O)O)cc2)N(C)C(=O)[C@H](Cc2ccncc2)NC(=O)[C@H](CCCNC(=N)N)NC(=O)[C@H](CCC(=O)NCCOCCOCCOCCOCCOCCOCCOCCOC)NC(=O)[C@H]([C@@H](C)CC)NC1=O` [compound 50] ({CH2CO}-AV[NMePhe(3-Cl)]V[Trp(1-CH2COOH)]N[3Pal(6-NH2)]Y(Carboxymethyl)[Nva(3-Et)]IE(NH(CH2CH2O)8Me)R[4Pal][NMePhe(4-COOH)]C[PEG4]-NH2; thioether N-15): the Kd was found to be 6500 nM in assay [1] and 1780 nM in assay [2].
On to `CC[C@H](C)[C@@H]1NC(=O)[C@H](Cc2ccc(OCC(=O)N3CCN(CC(=O)O)CC3)cc2)NC(=O)[C@H](Cc2ccc(N)nc2)NC(=O)[C@H](CC(N)=O)NC(=O)[C@H](Cc2cn(CC(=O)O)c3ccccc23)NC(=O)[C@H](C(C)C)NC(=O)[C@H](Cc2cccc(Cl)c2)N(C)C(=O)[C@H](C(C)C)NC(=O)[C@H](C)NC(=O)CSC[C@@H](C(=O)NCCOCCOCCOCCOCCC(N)=O)NC(=O)[C@H](Cc2ccc(C(=O)O)cc2)N(C)C(=O)[C@H](Cc2cccc(C(=O)O)c2)NC(=O)[C@H](CCCCN2CCOCC2)NC(=O)[C@H](CCC(N)=O)NC(=O)[C@H]([C@@H](C)CC)NC1=O` [compound 51] ({CH2CO}-AV[NMePhe(3-Cl)]V[Trp(1-CH2COOH)]N[3Pal(6-NH2)]Y(CH2CON(CH2CH2)2NCH2COOH)IIQ[Nle(6-morpholino)][Phe(3-COOH)][NMePhe(4-COOH)]C[PEG4]-NH2; thioether N-15), for which the dissociation constant (Kd) in assay [1] came to 1560 nM; in assay [2], 692 nM.
Taken in the same sequence, the figures for `CCC(CC)[C@@H]1NC(=O)[C@H](Cc2ccc(OCC(=O)N3CCN(CC(=O)O)CC3)cc2)NC(=O)[C@H](Cc2ccc(N)nc2)NC(=O)[C@H](CC(N)=O)NC(=O)[C@H](Cc2cn(CC(=O)O)c3ccccc23)NC(=O)[C@H](C(C)C)NC(=O)[C@H](Cc2cccc(Cl)c2)N(C)C(=O)[C@H](C(C)C)NC(=O)[C@H](C)NC(=O)CSC[C@@H](C(=O)NCCOCCOCCOCCOCCC(N)=O)NC(=O)[C@H](Cc2ccc(O)cc2)N(C)C(=O)[C@H](Cc2cccc(C(=O)O)c2)NC(=O)[C@H](CCCCN2CCOCC2)NC(=O)[C@H](CCC(N)=O)NC(=O)[C@H]([C@@H](C)CC)NC1=O` [compound 52] ({CH2CO}-AV[NMePhe(3-Cl)]V[Trp(1-CH2COOH)]N[3Pal(6-NH2)]Y(CH2CON(CH2CH2)2NCH2COOH)[Nva(3-Et)]IQ[Nle(6-morpholino)][Phe(3-COOH)][NMeY]C[PEG4]-NH2; thioether N-15) were 5820 nM and 626 nM.
As for `CCC(CC)[C@@H]1NC(=O)[C@H](Cc2ccc(OC)cc2)NC(=O)[C@H](Cc2ccc(O)cc2)NC(=O)[C@H](CC(N)=O)NC(=O)[C@H](Cc2c[nH]c3ncccc23)NC(=O)[C@H](C(C)C)NC(=O)[C@H](Cc2cccc(Cl)c2)N(C)C(=O)[C@H](C(C)C)NC(=O)[C@H](C)NC(=O)CSC[C@@H](C(=O)NCCOCCOCCOCCOCCC(N)=O)NC(=O)[C@H](Cc2ccc(O)cc2)N(C)C(=O)[C@H](Cc2ccncc2)NC(=O)[C@H](CCCNC(=N)N)NC(=O)[C@H](CCCCN2CCOCC2)NC(=O)[C@H]([C@@H](C)CC)NC1=O` [compound 54] ({CH2CO}-AV[NMePhe(3-Cl)]V[Trp(7-aza)]NYY(Me)[Nva(3-Et)]I[Nle(6-morpholino)]R[4Pal][NMeY]C[PEG4]-NH2; thioether N-15), the results for the Kd in assay [1] and in assay [2] were 1.38 nM and 9.2 nM, respectively.
